Patent US9434711B2 (Janssen Pharmaceutica, NV, priority 2007, dated 2016)

Target: canine TRPM8 (Canis lupus familiaris, UniProt Q1A7N1)
Assay: In Vitro Canine TRPM8 Functional Assay (Ca2+ fluorescence, icilin activation)
Assay type: cell-based
Conditions: for IC50: HEK293 cells stably expressing canine TRPM8, icilin activation, eight-point dose-response, read-out: IC50; for % Inh @ 0.2 (μM) / inhibition at 0.2 µM: compound at 0.2 μM, canine TRPM8, icilin activation; for inhibition at 0.2 µM: read-out: % Inh @ 0.2
In short: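 Eight-point dose-response curves, each point averaging quadruplicate wells, gave EC50 or IC50. Canine TRPM8-expressing HEK293 cells, dye-loaded (Calcium 3), were pre-exposed 5 min to compound, then challenged with icilin at roughly EC80; intracellular Ca2+ read by FLIPR or FDSS fluorescence.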

Chain of canine TRPM8 (Q1A7N1 1-1104): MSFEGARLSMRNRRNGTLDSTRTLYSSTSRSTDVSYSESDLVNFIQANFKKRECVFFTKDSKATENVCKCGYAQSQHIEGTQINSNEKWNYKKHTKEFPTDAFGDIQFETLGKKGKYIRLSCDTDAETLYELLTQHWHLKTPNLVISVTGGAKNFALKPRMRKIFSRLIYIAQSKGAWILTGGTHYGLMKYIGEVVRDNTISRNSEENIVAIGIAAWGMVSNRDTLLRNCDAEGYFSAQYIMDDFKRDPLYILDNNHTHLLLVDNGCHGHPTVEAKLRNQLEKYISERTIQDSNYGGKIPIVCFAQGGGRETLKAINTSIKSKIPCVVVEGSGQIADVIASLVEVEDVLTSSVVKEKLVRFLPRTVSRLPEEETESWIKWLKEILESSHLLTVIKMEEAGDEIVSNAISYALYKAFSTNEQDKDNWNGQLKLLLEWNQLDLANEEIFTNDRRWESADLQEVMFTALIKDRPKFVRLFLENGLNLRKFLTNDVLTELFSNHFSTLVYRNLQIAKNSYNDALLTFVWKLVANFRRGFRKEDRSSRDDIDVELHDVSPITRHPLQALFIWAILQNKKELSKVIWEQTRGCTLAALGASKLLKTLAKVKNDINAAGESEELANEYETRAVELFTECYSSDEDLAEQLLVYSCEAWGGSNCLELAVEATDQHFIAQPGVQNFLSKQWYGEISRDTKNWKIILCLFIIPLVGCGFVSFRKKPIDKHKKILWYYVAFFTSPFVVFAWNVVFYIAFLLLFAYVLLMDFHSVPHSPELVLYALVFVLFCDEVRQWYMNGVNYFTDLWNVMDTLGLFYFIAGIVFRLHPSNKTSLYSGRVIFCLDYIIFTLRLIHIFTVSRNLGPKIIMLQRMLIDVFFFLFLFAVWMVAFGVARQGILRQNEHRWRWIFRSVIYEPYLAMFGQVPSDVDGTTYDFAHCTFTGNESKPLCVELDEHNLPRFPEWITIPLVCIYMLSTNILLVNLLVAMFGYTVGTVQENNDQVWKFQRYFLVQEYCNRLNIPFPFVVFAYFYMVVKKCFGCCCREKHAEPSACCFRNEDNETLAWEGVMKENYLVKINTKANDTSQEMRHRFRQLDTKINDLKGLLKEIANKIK

IC50 [nM]	inhibition at 0.2 µM [%]	Compound	% Inh @ 0.2 (μM) [%]
55		Cc1c(N(Cc2cccnc2)S(=O)(=O)c2ccc(C(=O)O)cc2)sc2ccccc12 [Compound 495, N-(3-Methyl-benzo[b]thiophen-2-yl)-N-(pyridin-3-ylmethyl)-4-carboxy-benzenesulfonamide]	98
	15	CCCCN(c1sc2ccccc2c1NC(C)=O)S(=O)(=O)c1ccc(C(=O)OC)cc1 [Compound 500, N-(3-Acetylamino-benzo[b]thiophen-2-yl)-N-(butyl)-4-carbomethoxy-benzenesulfonamide]	
31	100	CCCCN(c1sc2ccccc2c1C(C)(C)O)S(=O)(=O)c1ccc(Br)cc1 [Compound 506, N-(Butyl)-N-(3-(1-hydroxy-1-methyl-ethyl)-benzo[b]thiophen-2-yl)-4-bromo-benzenesulfonamide]	
	47	CS(=O)(=O)Nc1c(N(Cc2ccc(F)c(C(F)(F)F)c2)S(=O)(=O)c2ccccc2)sc2ccccc12 [Compound 508, N-(4-Fluoro-3-trifluoromethyl-benzyl)-N-(3-methanesulfonylamino-benzo[b]thiophen-2-yl)-benzenesulfonamide]	
11	102	Cc1c(N(Cc2ccc(F)c(C(F)(F)F)c2)S(=O)(=O)CCC(=O)O)sc2ccccc12 [Compound 510, N-(4-Fluoro-3-trifluoromethyl-benzyl)-N-(3-methyl-benzo[b]thiophen-2-yl)-2-carboxy-ethanesulfonamide]	
3	101	O=c1[nH]c(-c2ccc(S(=O)(=O)N(Cc3ccc(F)c(C(F)(F)F)c3)c3sc4ccccc4c3Br)cc2)no1 [Compound 511, N-(3-Bromo-benzo[b]thiophen-2-yl)-N-(4-fluoro-3-trifluoromethyl-benzyl)-4-(5-oxo-4,5-dihydro-[1,2,4]oxadiazol-3-yl)-benzenesulfonamide]	
19	102	CCCCN(c1sc2ccccc2c1C(C)(C)O)S(=O)(=O)c1ccc(C(=O)OC)cc1 [Compound 516, N-(Butyl)-N-(3-(1-hydroxy-1-methyl-ethyl)-benzo[b]thiophen-2-yl)-4-carbomethoxy-benzenesulfonamide]	
2	102	Cc1c(N(Cc2cc(F)c(F)c(F)c2)S(=O)(=O)c2ccc(C(=O)O)cc2)sc2ccccc12 [Compound 517, N-(3-Methyl-benzo[b]thiophen-2-yl)-N-(3,4,5-trifluoro-benzyl)-4-carboxy-benzenesulfonamide]	

More lines, now with the values behind:

Compound	IC50 [nM]	inhibition at 0.2 µM [%]	% Inh @ 0.2 (μM) [%]
Cc1c(N(Cc2ccc(S(C)(=O)=O)cc2)S(=O)(=O)c2ccc(C(=O)O)cc2)sc2ccccc12 [Compound 492, N-(3-Methyl-benzo[b]thiophen-2-yl)-N-(4-methylsulfone-benzyl)-4-carboxy-benzenesulfonamide]	62		91
Cc1c(N(Cc2c(F)c(F)c(F)c(F)c2F)S(=O)(=O)c2ccc(C(=O)O)cc2)sc2ccccc12 [Compound 493, N-(3-Methyl-benzo[b]thiophen-2-yl)-N-(2,3,4,5,6-pentafluoro-benzyl)-4-carboxy-benzenesulfonamide]	0.8	101	
Cc1c(N(Cc2ccc(S(=O)(=O)C(F)(F)F)cc2)S(=O)(=O)c2ccc(C(=O)O)cc2)sc2ccccc12 [Compound 494, N-(3-Methyl-benzo[b]thiophen-2-yl)-N-(4-trifluoromethylsulfone-benzyl)-4-carboxy-benzenesulfonamide]	0.9		101
O=[N+]([O-])c1ccc(S(=O)(=O)N(CCC(F)(F)F)c2cc3ccccc3s2)cc1 [Compound 498, N-(Benzo[b]thiophen-2-yl)-4-nitro-N-(3,3,3-trifluoro-propyl)-benzenesulfonamide]		41	
Nc1ccc(S(=O)(=O)N(CCC(F)(F)F)c2cc3ccccc3s2)cc1 [Compound 499, 4-Amino-N-(benzo[b]thiophen-2-yl)-N-(3,3,3-trifluoro-propyl)-benzenesulfonamide]	15	101	
O=C(O)c1ccc(S(=O)(=O)N(Cc2ccc(F)c(C(F)(F)F)c2)c2sc3ccccc3c2C2CCCC2)cc1 [Compound 502, N-(3-Cyclopentyl-benzo[b]thiophen-2-yl)-N-(4-fluoro-3-trifluoromethyl-benzyl)-4-carboxy-benzenesulfonamide]	10	100	
CCCCN(c1sc2ccccc2c1C(C)=O)S(=O)(=O)c1ccc(Br)cc1 [Compound 503, N-(3-Acetyl-benzo[b]thiophen-2-yl)-N-(butyl)-4-bromo-benzenesulfonamide]	47	96	
COC(=O)c1ccc(S(=O)(=O)N(CCC(F)(F)F)c2sc3ccccc3c2C(C)(C)O)cc1 [Compound 504, N-(3-(1-Hydroxy-1-methyl-ethyl)-benzo[b]thiophen-2-yl)-N-(3,3,3-trifluoro-propyl)-4-carbomethoxy-benzenesulfonamide]	18	101	
CS(=O)(=O)Nc1ccc(S(=O)(=O)N(CCC(F)(F)F)c2cc3ccccc3s2)cc1 [Compound 507, N-(Benzo[b]thiophen-2-yl)-4-methanesulfonylamino-N-(3,3,3-trifluoro-propyl)-benzenesulfonamide]	34	92	
CC(=O)Nc1c(N(Cc2ccc(F)c(C(F)(F)F)c2)S(=O)(=O)c2ccccc2)sc2ccccc12 [Compound 509, N-{2-[Benzenesulfonyl-(4-fluoro-3-trifluoromethyl-benzyl)-amino]-benzo[b]thiophen-3-yl}-acetamide]	32	100	
O=c1[nH]c(-c2ccc(S(=O)(=O)N(Cc3ccc(F)c(C(F)(F)F)c3)c3sc4ccccc4c3Cl)cc2)no1 [Compound 512, N-(3-Chloro-benzo[b]thiophen-2-yl)-N-(4-fluoro-3-trifluoromethyl-benzyl)-4-(5-oxo-4,5-dihydro-[1,2,4]oxadiazol-3-yl)-benzenesulfonamide]	4	102	
O=c1[nH]c(-c2ccc(S(=O)(=O)N(CCCC(F)(F)F)c3cc4ccccc4s3)cc2)no1 [Compound 513, N-(Benzo[b]thiophen-2-yl)-N-(4,4,4-trifluoro-butyl)-4-(5-oxo-4,5-dihydro-[1,2,4]oxadiazol-3-yl)-benzenesulfonamide]	21	101	
O=c1[nH]c(-c2ccc(S(=O)(=O)N(CCCC(F)(F)F)c3sc4ccccc4c3Br)cc2)no1 [Compound 514, N-(3-Bromo-benzo[b]thiophen-2-yl)-N-(4,4,4-trifluoro-butyl)-4-(5-oxo-4,5-dihydro-[1,2,4]oxadiazol-3-yl)-benzenesulfonamide]	46	100	
Cc1c(N(Cc2ccc(C(F)(F)F)cc2)S(=O)(=O)c2ccc(C(=O)O)cc2)sc2ccccc12 [Compound 518, N-(3-Methyl-benzo[b]thiophen-2-yl)-N-(4-trifluoromethyl-benzyl)-4-carboxy-benzenesulfonamide]	0.7	101	
Cc1c(N(Cc2cc(C(F)(F)F)ccc2F)S(=O)(=O)c2ccc(C(=O)O)cc2)sc2ccccc12 [Compound 519, N-(3-Methyl-benzo[b]thiophen-2-yl)-N-(2-fluoro-5-trifluoromethyl-benzyl)-4-carboxy-benzenesulfonamide]	6	102	
